Reference: patent US6169087A, “Modulators of protein tyrosine phosphatases (PTPases)” (Novo Nordisk A/S, priority 1998, dated 2001)

Target: T1, truncated form of PTP1B (corresponding to the first 321 amino acids) (Homo sapiens, UniProt P18031)
T1 construct: truncated form of PTP1B (corresponding to the first 321 amino acids); made in house; host or cells: E. coli
T1 sequence (P18031 1-321): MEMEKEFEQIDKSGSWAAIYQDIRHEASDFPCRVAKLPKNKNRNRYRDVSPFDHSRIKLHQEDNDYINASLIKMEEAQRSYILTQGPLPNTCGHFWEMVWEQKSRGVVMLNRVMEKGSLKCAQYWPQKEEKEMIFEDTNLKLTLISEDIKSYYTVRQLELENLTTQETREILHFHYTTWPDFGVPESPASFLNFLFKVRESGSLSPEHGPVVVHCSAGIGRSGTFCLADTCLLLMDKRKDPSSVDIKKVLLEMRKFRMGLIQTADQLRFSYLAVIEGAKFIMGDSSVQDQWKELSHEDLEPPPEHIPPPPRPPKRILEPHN
Test: Inhibition of classical PTP1B, p-nitrophenyl phosphate enzyme assay
Assay type: biochemical
Conditions: substrate p-nitrophenyl phosphate 0.16 to 10 mM; 100 mM sodium acetate pH 5.5; 25° C., 60 minutes; absorbance at 405 nm; read-out: PTP1B K1 values
Procedure: These compounds were evaluated for biological activity with a truncated form of PTP1B (corresponding to the first 321 amino acids), which was expressed in E. coli and purified to apparent homogeneity using published procedures well-known to those skilled in the art. The enzyme reactions were carried out using standard conditions essentially as described by Burke et al. (Biochemistry 35; 15989-15996 (1996)). The assay conditions were as follows. Appropriate concentrations of the compounds of the invention were added to the reaction mixtures containing different concentrations of the substrate, p-nitrophenyl phosphate (range: 0.16 to 10 mM--final assay concentration). The buffer used was 100 mM sodium acetate pH 5.5, 50 mM sodium chloride, 0.1% (w/v) bovine serum albumin and 5 mM dithiothreitol (total volume […]). The reaction was started by addition of the enzyme and carried out in microliter plates at 25° C. for 60 minutes. The reactions were stopped by addition of NaOH. The enzyme activity was determined by measurement of the absorbance at 405 nm with appropriate corrections for absorbance at 405 nm of the compounds and p-nitrophenyl phosphate. The data were analyzed using nonlinear regression fit to classical Michaelis Menten enzyme kinetic models. Inhibition is expressed as Ki values in μM.

Row | Structure (SMILES) | Ki [µM]
1 | CCSc1nn(-c2ccc(OC)cc2)c(=O)c2c(N)scc12 [Example 2, 7-Amino-4-ethylsulfanyl-2-(4-methoxy-phenyl)thieno[3,4-d]pyridazin-1(2H)-one] | 2
2 | Nc1scc2c1c(=O)oc1ccc3ccccc3c12 [Example 3, 3-Amino4H-naphtho[2,1-b]thieno[3,4-d]pyran-4-one] | 4
